The values that follow come from patent EP2951180B1, “2,6,7,8 SUBSTITUTED PURINES AS HDM2 INHIBITORS” (Merck Sharp & Dohme Corp., priority 2013, dated 2014).

Where two headings read alike, the source gives them in different places.

For this experiment, the target named is T1, HDM2 (Homo sapiens, UniProt Q00987).
T1 construct: Thioredoxin (N); made in house; host or cells: E. coli strain BL21(DE3)Rosetta
Briefly: HDM2 FRET assay (inhibition of binding of FITC labeled p53-pocket peptide to HDM2). The note with it: for IC50: read-out: FRET IC50. A digest of the protocol: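 Displacement of FITC-p53 peptide (3 nM) from His-tagged HDM2 (0.5 nM) is measured by Tb-to-fluorescein FRET in PBS, 0.01% BSA, 0.01% Tween-20. IC50 values derive from 10-point curves.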

The mark [1] stands for this setting: 0.5 nM HDM2 (residues 17 to 125), 3nM peptide, two hour incubation at room temperature.

T1 sequence (Q00987 17-125): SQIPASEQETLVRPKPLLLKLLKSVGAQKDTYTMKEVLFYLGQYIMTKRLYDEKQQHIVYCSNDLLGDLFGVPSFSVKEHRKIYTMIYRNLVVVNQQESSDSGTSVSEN

For orientation: IC50 means the midpoint of a concentration-inhibition curve. Turning to `Cc1cccc(-c2nc3nc(C(=O)O)nc(N[C@H](C)C4CCCCC4)c3n2Cc2ccc(C(F)(F)F)cc2)c1` [Example 6.42, 6-{[(1R)-1-cyclohexylethyl]amino}-8-(3-methylphenyl)-7-[4-(trifluoromethyl)benzyl]-7H-purine-2-carboxylic acid], the concentration for half-maximal inhibition (IC50) (Table 6) was found to be 564 nM. As to `CC([C@H]1CC[C@H](C)CC1)n1c(N2CCOC[C@H]2C)nc2nc(-c3n[nH]c(=O)o3)nc(-c3cccc(Cl)c3)c21` (single isomer, unassigned) [Example 18.35], the IC50 (Table 18) is 5.04 nM. In the case of `Cc1cccc(-c2nc3nc(C(=O)O)nc(N(C)C(C)C4CC4)c3n2Cc2ccc(C(F)(F)F)cc2)c1` (stereo not shown) [Example 6.88, 6-[(1-cyclopropylethyl)(methyl)amino]-8-(3-methylphenyl)-7-[4-(trifluoromethyl)benzyl]-7H-purine-2-carboxylic acid], the inhibition at 1 µM (read-out: inh. at 1000 nM (FRET)) stood at 33%. Take `C[C@@H](Nc1nc(-c2noc(=O)[nH]2)nc2nc(C3(c4ccc(F)cc4)CC3)n(C[C@H]3CC[C@H](C)CC3)c12)C1CCC1` [Example 22.30, 3-(6-{[(1R)-1-cyclobutylethyl]amino}-8-[1-(4-fluorophenyl)cyclopropyl] -7-[(trans-4-methylcyclohexyl)methyl] -7H-purin-2-yl)-1,2,4-oxadiazol-5(4H)-one]: the IC50 (Table 22) turned out to be 10.1 nM.

For the compound `C[C@@H](Nc1nc(-c2noc(=O)[nH]2)nc2nc(C(C)(O)c3cccnc3)n(C[C@H]3CC[C@H](C)CC3)c12)C1CCC1` (stereo partly drawn) [Example 22.51, 3-(6-{[(1R)-1-cyclobutylethyl]amino}-8-(1-hydroxy-1-pyridin-3-ylethyl)-7-[(trans-4-methylcyclohexyl)methyl] -7H-purin-2-yl)-1,2,4-oxadiazol-5(2H)-one], where the note is “Table 22”, the half-inhibitory concentration (IC50) is 21.2 nM.

With `CC(C)c1ccnc(-c2nc3nc(C(=O)O)nc(N[C@H](C)C4CCC4)c3n2C[C@H]2CC[C@H](C)CC2)c1` [Example 15.15, 6-{[(1R)-1-cyclobutylethyl]amino}-7-[(trans-4-methylcyclohexyl)methyl]-8-[4-(1-methylethyl)pyridin-2-yl]-7H-purine-2-carboxylic acid], under setting [1], the IC50 came out at 2.55 nM. As for `C[C@@H](Nc1nc(-c2noc(=O)[nH]2)nc2nc(S(=O)(=O)c3ccccc3)n(C[C@H]3CC[C@H](C)CC3)c12)C1CCC1` [Example 19.3, 3-[6-{[(1R)-1-cyclobutylethyl]amino}-7-[(trans-4-methylcyclohexyl)methyl]-8-(phenylsulfonyl)-7H-purin-2-yl]-1,2,4-oxadiazol-5(4H)-one], the half-inhibitory concentration (IC50) (Table 19) was determined as 0.943 nM.

As to `Cc1cccc(-c2nc(-c3noc(=O)[nH]3)nc3nc(-c4cc(C(C)C)ccn4)n(C[C@H]4CC[C@H](C)CC4)c23)c1` [Example 16.15, 3-{7-[(trans-4-methylcyclohexyl)methyl]-8-[4-(1-methylethyl)pyridin-2-yl]-6-(3-methylphenyl)-7H-purin-2-yl}-1,2,4-oxadiazol-5(4H)-one], the half-maximal inhibitory concentration (IC50) under setting [1] was 30 nM.

As for `C[C@H]1CC[C@H](Cn2c(N3CCOC[C@H]3c3ccccc3)nc3nc(-c4n[nH]c(=O)o4)nc(C4CCOCC4)c32)CC1` [Example 16.168, 5-{7-[(trans-4-methylcyclohexyl)methyl]-8-[(3R)-3-phenylmorpholin-4-yl]-6-(tetrahydro-2H-pyran-4-yl)-7H-purin-2-yl} -1,3,4-oxadiazol-2(3H)-one], the half-maximal inhibitory concentration (IC50) under setting [1] worked out at 67.1 nM. Regarding `C[C@@H](Nc1nc(C(=O)O)nc2nc(C3(c4ccccc4)CC3)n(Cc3ccc(C(F)(F)F)cc3)c12)C1CCC1` [Example 20.3, 6-{[(1R)-1-cyclobutylethyl]amino}-8-(1-phenylcyclopropyl)-7-[4-(trifluoromethyl)benzyl]-7H-purine-2-carboxylic acid], the half-maximal inhibitory concentration (IC50) (Table 20) came out at 8.57 nM. As to `C[C@H]1CC[C@H](Cn2c(N3CCOC[C@H]3c3ccccc3)nc3nc(-c4noc(=O)[nH]4)nc(-c4cc(Cl)cc(N5CCCC5)c4)c32)CC1` [Example 16.113, 3-{6-(3-chloro-5-pyrrolidin-1-ylphenyl)-7-[(trans-4-methylcyclohexyl)methyl]-8-[(3R)-3-phenylmorpholin-4-yl]-7H-purin-2-yl}-1,2,4-oxadiazol-5(4H)-one], under setting [1], the concentration for half-maximal inhibition (IC50) came to 14.9 nM.

Turning to `CCc1cccc(-c2nc(-c3noc(=O)[nH]3)nc3nc(N4CCOC[C@H]4c4ccccc4)n(C[C@H]4CC[C@H](C)CC4)c23)c1` [Example 16.30, 3-{6-(3-ethylphenyl)-7-[(trans-4-methylcyclohexyl)methyl]-8-[(3R)-3-phenylmorpholin-4-yl]-7H-purin-2-yl}-1,2,4-oxadiazol-5(4H)-one], under setting [1], the half-inhibitory concentration (IC50) was 2.77 nM.

Turning to `CC([C@H]1CC[C@H](C)CC1)n1c(N2CCC[C@H]2CF)nc2nc(-c3n[nH]c(=O)o3)nc(-c3cncc(Cl)c3)c21` (single isomer, unassigned) [Example 18.47], where the note is “Table 18”, the 50% inhibitory concentration (IC50) came to 5.14 nM. For the compound `Cc1cccc(-c2nc3nc(C(=O)O)nc(N[C@H](CCCO)C4CCC4)c3n2Cc2ccc(C(F)(F)F)cc2)c1` [Example 7.2, 6-{[(1R)-1-cyclobutyl-4-hydroxybutyl]amino}-8-(3-methylphenyl)-7-[4-(trifluoromethyl)benzyl]-7H-purine-2-carboxylic acid], the IC50 (Table 7) turned out to be 41 nM. For `C[C@@H](Nc1nc(C(=O)O)nc2nc(NC3CCCCC3)n(Cc3ccc(C(F)(F)F)cc3)c12)C1CCC1` [Example 9.12, 6-{[(1R)-1-cyclobutylethyl]amino}-8-(cyclohexylamino)-7-[4-(trifluoromethyl)benzyl]-7H-purine-2-carboxylic acid], the IC50 (Table 9) was determined as 7.65 nM. `C[C@@H](Nc1nc(-c2noc(=O)[nH]2)nc2nc(N3CCCC3CC(C)(C)C)n(C[C@H]3CC[C@H](C)CC3)c12)C1CCC1` (stereo partly drawn) [Example 11.37, 3-(6-{[(1R)-1-cyclobutylethyl]amino}-8-[2-(2,2-dimethylpropyl)pyrrolidin-1-yl]-7-[(trans-4-methylcyclohexyl)methyl]-7H-purin-2-yl)-1,2,4-oxadiazol-5(2H)-one]: the half-inhibitory concentration (IC50) (Table 11) is 6.98 nM. Take `C[C@H]1CC[C@H](Cn2c(N3CCOC[C@H]3c3ccccn3)nc3nc(-c4n[nH]c(=O)o4)nc(-c4cccc(Cl)c4)c32)CC1` [Example 16.99, 5-{6-(3-chlorophenyl)-7-[(trans-4-methylcyclohexyl)methyl]-8-[(3R)-3-pyridin-2-ylmorpholin-4-yl]-7H-purin-2-yl}-1,3,4-oxadiazol-2(3H)-one]: the half-inhibitory concentration (IC50) under setting [1] was 1.98 nM. Consider `C[C@@H](Nc1nc(C(=O)O)nc2nc(N[C@@H](CO)c3ccccc3)n(Cc3ccc(C(F)(F)F)cc3)c12)C1CCC1` [Example 9.6, 6-{[(1R)-1-cyclobutylethyl]amino}-8-{[(1R)-2-hydroxy-1-phenylethyl]amino}-7-[4-(trifluoromethyl)benzyl]-7H-purine-2-carboxylic acid], for which, for the setting “Table 9”, the IC50 turned out to be 1.47 nM. With `CN(C)C(=O)[C@@H]1CCCN1c1nc2nc(-c3noc(=O)[nH]3)nc(-c3cccc(Cl)c3)c2n1C[C@H]1CC[C@H](C)CC1` [Example 16.148, 1-[6-(3-chlorophenyl)-7-[(trans-4-methylcyclohexyl)methyl]-2-(5-oxo-4,5-dihydro-1,2,4-oxadiazol-3-yl)-7H-purin-8-yl]-N,N-dimethyl-L-prolinamide], under setting [1], the IC50 is 15.1 nM.

Take `C[C@H]1CC[C@H](Cn2c(N3CCOC[C@H]3c3ccccc3)nc3nc(-c4noc(=O)[nH]4)nc(-c4cc(Cl)cc(Cl)c4)c32)CC1` [Example 16.19, 3-{6-(3,5-dichlorophenyl)-7-[(trans-4-methylcyclohexyl)methyl]-8-[(3R)-3-phenylmorpholin-4-yl]-7H-purin-2-yl}-1,2,4-oxadiazol-5(4H)-one]: the IC50 under setting [1] turned out to be 0.995 nM. Take `CC(C)[C@@H]1COCCN1c1nc2nc(-c3noc(=O)[nH]3)nc(-c3cccc(Cl)c3)c2n1C[C@H]1CC[C@H](C)CC1` [Example 16.42, 3-{6-(3-chlorophenyl)-7-[(trans-4-methylcyclohexyl)methyl]-8-[(3R)-3-(1-methylethyl)morpholin-4-yl]-7H-purin-2-yl}-1 ,2,4-oxadiazol-5(4H)-one]: under setting [1], the IC50 was found to be 3.62 nM. In the case of `C[C@H]1CC[C@H](Cn2c(N3CCOC[C@H]3c3ccccc3)nc3nc(-c4noc(=O)[nH]4)nc(N4CCCCC4C4CCC4)c32)CC1` (stereo partly drawn) [Example 11.82, 3-{6-(2-cyclobutylpiperidin-1-yl)-7-[(trans-4-methylcyclohexyl)methyl]-8-[(3R)-3-phenylmorpholin-4-yl]-7H -purin-2-yl}-1,2,4-oxadiazol-5(4H)-one], the concentration for half-maximal inhibition (IC50) (Table 11) turned out to be 6.45 nM. Consider `COC1(c2nc3nc(-c4noc(=O)[nH]4)nc(-c4cncc(Cl)c4)c3n2C[C@H]2CC[C@H](C)CC2)CCCCC1C` (relative stereo) [Example 23.63, 3-{6-(5-chloropyridin-3-yl)-8-(1-methoxy-2-methylcyclohexyl)-7-[(trans-4-methylcyclohexyl)methyl] -7H-purin-2-yl}-1,2,4-oxadiazol-5(4H)-one], for which the IC50 (Table 23) was determined as 7.64 nM. Regarding `C[C@@H](Nc1nc(-c2noc(=O)[nH]2)nc2nc(N(C)C3CCCC3)n(Cc3ccc(C(F)(F)F)cc3)c12)C1CCC1` [Example 9.82, 3-(6-{[(1R)-1-cyclobutylethyl]amino}-8-[cyclopentyl(methyl)amino]-7-[4-(trifluoromethyl)benzyl]-7H-purin-2-yl)-1,2,4-oxadiazol-5(4H)-one], the IC50 (Table 9) is 13.7 nM. For `C[C@H]1CC[C@H](Cn2c(N3CCOC[C@H]3c3ccccc3)nc3nc(-c4noc(=O)[nH]4)nc(-c4cc(Cl)cnc4F)c32)CC1` [Example 16.108, 3-{6-(5-chloro-2-fluoropyridin-3-yl)-7-[(trans-4-methylcyclohexyl)methyl]-8-[(3R)-3-phenylmorpholin-4-yl]-7H-purin-2-yl}-1,2,4-oxadiazol-5(4H)-one], the IC50 under setting [1] is 1.16 nM.
